Results taken from patent US9738605B2, “Hybrid compounds of curcumin and melatonin as neuroprotectants for neurodegenerative disorders” (VIRGINIA COMMONWEALTH UNIVERSITY, priority 2013, dated 2017).
Entries after “also recorded” stand apart in the source; their conditions may differ. Like-named read-outs stand apart in the source and are kept apart here.

Key:
Aβ42 = molecular target: T1, Aβ42 (Homo sapiens, UniProt P05067); assay: Thioflavin T assay of Aβ42 fibril formation; format: biochemical; details: up to 100 μM, 48 h, ThT
T1 construct: purchased American Peptide, Inc. (Sunnyvale, Calif.)
T1 sequence (P05067 672-713 limits assumed): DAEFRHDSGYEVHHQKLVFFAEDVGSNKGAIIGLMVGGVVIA
Protocol: Briefly, 1 μL of each compound solution in DMSO (0.01 μM to 100 μM) was added to corresponding wells in a 96-well plate. Each concentration was prepared in independent triplicates and a solvent control was included. To each well, 9 μL of 25 μM Aβ42 in PBS (pH 7.4) was added, and then plates were incubated in dark at room temperature for 48 h. Next, 200 μL of a 5 μM ThT in 50 mM glycine solution (pH 8.0) was added to each well.

HT22 cells = assay: Hydrogen peroxide toxicity assay in HT22 cells; format: cell-based, mouse; details: up to 0.3 μM, H2O2 500 μM, 24 h
Protocol: HT22 cells were seeded in 96-well plates (4×10^3 cells/well) in growth medium and incubated for 24 h at 37° C. The medium was removed and compounds were added at the indicated concentrations in fresh growth medium, and the cells were incubated for another 1 h. H2O2 was then added at a final concentration of 500 μM, and the plates were then incubated for 24 h. Cell viability was assessed by MTT assay as previously described. Values were expressed as a percentage relative to the negative (H2O2-free) control.

[1] = In vivo BBB penetration experiment, LC-MS/MS of plasma and brain; parameters: species or system CD-1 male mice
Protocol: Briefly, ten week old CD-1 male mice were purchased from Harlan Laboratories (Frederich, Md.). Compound 9 was diluted to a concentration of 15 mg/mL in a solution with 2% DMSO and 10% Cremophor in PBS, and was administered via oral gavage at a final dosage of 50 mg/kg. Two groups of mice (n=6/group) were used to determine the plasma and brain concentrations of the compound at various time-points. […] Afterwards, the right atrium was removed to allow exsanguination, and the left ventricular apex was cannulated with a 24 G needle and perfused with 30 mL of warm (37° C.) heparinized normal saline solution to enable perfusion of all the organs and complete blood washout. The perfused brains were then collected, rapidly washed in normal saline, blot-dried, and frozen in liquid nitrogen. Brain samples were then analyzed by the LC-MS/MS.
For brain samples, half a brain was weighed and diluted with 1.0 mL of acetonitrile and then mixed well. For plasma samples, 0.01 mL of plasma was diluted with 0.99 mL of acetonitrile and then mixed well. After mixing, samples were centrifuged at 15,000 rpm and the supernatant was transferred to a new tube and evaporated to dryness using spin vacuum. The samples were then reconstituted with an 80:20 solution of 1% acetic acid in acetonitrile: 1% acetic acid in water, and a volume of 0.025 mL was then injected into the LC-MS/MS. The LC/MS/MS method employed positive electrospray ionization (ESI) with a selected reaction monitoring (SRM) mode. Compound 9 was monitored using the following SRM transitions: 381→174, 130, and 159. Chromatographic separation was achieved under gradient conditions using a Waters Acquity® UPLC, with a reversed phase column (Gemini 5u C18 110 Å, 100 mm×2.0 mm; 5 um, Phenomenex Inc., Torrance, Calif.) with a mobile phase composition of 1% acetic acid in water (mobile phase A) and 1% acetic acid in acetonitrile (mobile phase B). The initial gradient consisted of 30% B for 1 min, 30% to 95% B from 1 to 3 min, hold for 1 min at 95% B, and then equilibrate at 30% B for 2.5 min. The total run time was 6.5 min. Results were processed using Analyst 1.5.2 software. Absolute recovery, precision and accuracy, and matrix effects experiments produced an efficient method to continue sample analysis. Calibration curves were made with freshly prepared samples and calculated using peak area versus concentration with a linear or quadratic regression. Accuracy fell in the range of 85% to 115%.
To accurately quantify the amount of 7 that is delivered into brain tissue and rule out the possibility of biased interpretation from vascular trapping, we perfused the mice to wash out the vascular blood completely prior to collecting brain tissues. After oral administration, plasma samples were collected at 0.25, 0.5, 1, and 24 hours, and brain samples were collected at 1 and 24 hours.

COc1ccc2[nH]cc(CCNC(=O)CC(=O)CCc3ccc(O)cc3)c2c1 [Compound 7, 5-(4-hydroxy-phenyl)-3-oxo-pentanoic acid [2-(5-methoxy-1H-indol-3-yl)-ethyl]-amide]
inhibition of the formation of Aβ42 fibrils (Aβ42): no significant inhibition
protection from H2O2-induced cytotoxicity (HT22 cells): no protection
concentration at 1 h ([1]; male, CD-1, mouse, brain, po, 50 mg/kg, perfused mice, n = 6, 1 h, read-out: Brain concentration, 1 h): 555 ± 188 nM
concentration at 24 h ([1]; male, CD-1, mouse, brain, po, 50 mg/kg, perfused mice, n = 6, 24 h, read-out: Brain concentration, 24 h): 47.4 ± 11.2 nM
concentration at 15 min ([1]; male, CD-1, mouse, plasma, po, 50 mg/kg, mice, n = 6, 15 min): 773 ± 310 nM
concentration at 30 min ([1]; male, CD-1, mouse, plasma, po, 50 mg/kg, mice, n = 6, 30 min): 795 ± 301 nM
concentration at 1 h ([1]; male, CD-1, mouse, plasma, po, 50 mg/kg, mice, n = 6, 1 h, read-out: Plasma concentration, 1 h): 883 ± 350 nM
concentration at 24 h ([1]; male, CD-1, mouse, plasma, po, 50 mg/kg, mice, n = 6, 24 h, read-out: Plasma concentration, 24 h): 30.5 ± 12 nM
BBB penetration after oral administration ([1]; oral 50 mg/kg, mice): confirmed to cross the blood-brain barrier; also recorded: confirming its BBB permeability
Plasma concentration, 15 min ([1]; oral 50 mg/kg, mice, n = 6, 15 min): 773.80 ± 309.86 nM
Plasma concentration, 1 h ([1]; oral 50 mg/kg, mice, n = 6, 1 h): 883.12 ± 350.36 nM
Plasma concentration, 24 h ([1]; oral 50 mg/kg, mice, n = 6, 24 h): 30.53 ± 11.96 nM
Brain concentration, 1 h ([1]; oral 50 mg/kg, perfused mice, n = 6, 1 h): 555.40 ± 188.44 nM
Brain concentration, 24 h ([1]; oral 50 mg/kg, perfused mice, n = 6, 24 h): 47.41 ± 11.19 nM
